Active and inactive are the calls of the source. The calls are words filed in the database; no cut-off is given here.
Experiments:
[1] = test system: DNA; test: Photochemical activity against denatured calf thymus DNA 10 ug after UV irradiation with 2.67 Joules/cm'2 for 30 mins at by hyperchromicity test; format: nucleic-acid assay; details: Bos taurus
[2] = test system: Fusarium sp.; test: Phototoxicity against Fusarium sp. at 10 ug/disk in presence of cool-white fluorescent light; format: functional, organism-based
[3] = test system: Kocuria rosea; test: Phototoxicity against Micrococcus roseus UBC 289 at 10 ug/disk in presence of long wave UV light; format: functional, organism-based
[4] = test system: Escherichia coli; test: Phototoxicity against Escherichia coli at 10 ug/disk in presence of cool-white fluorescent light; format: functional, organism-based
[5] = test system: Proteus mirabilis; test: Phototoxicity against Proteus mirabilis UBC 5 at 10 ug/disk in dark; format: functional, organism-based
[6] = test system: Staphylococcus epidermidis; test: Phototoxicity against Staphylococcus albus at 10 ug/disk in presence of long wave UV light; format: functional, organism-based
[7] = test system: Escherichia coli; test: Phototoxicity against Escherichia coli at 10 ug/disk in presence of long wave UV light; format: functional, organism-based
[8] = test system: Candida albicans; test: Phototoxicity against Candida albicans at 5 ug/disk after UV irradiation for 180 mins; format: functional; details: light or radiation study, 3 h, read-out: IZ
[9] = test system: Saccharomyces cerevisiae; test: Phototoxicity against Saccharomyces cerevisiae at 5 ug/disk after UV irradiation for 180 mins; format: functional; details: light or radiation study, 3 h, read-out: IZ
[10] = test system: Proteus mirabilis; test: Phototoxicity against Proteus mirabilis UBC 5 at 10 ug/disk in presence of long wave UV light; format: functional, organism-based
[11] = test system: DNA; test: Photochemical activity against denatured calf thymus DNA at 10 ug in dark after 60 mins by hyperchromicity test; format: nucleic-acid assay; details: Bos taurus; further: unit not given here
[12] = test system: Microsporum canis; test: Phototoxicity against Microsporum canis at 10 ug/disk in presence of cool-white fluorescent light; format: functional, organism-based
[13] = test system: Saccharomyces cerevisiae; test: Phototoxicity against Saccharomyces cerevisiae at 5 ug/disk after UV irradiation for 15 mins; format: functional; details: light or radiation study, 0.25 h, read-out: IZ
[14] = test system: Paraphyton cookei; test: Phototoxicity against Microsporum cookei at 10 ug/disk in dark; format: functional, organism-based
[15] = test system: Sporobolomyces; test: Phototoxicity against Sporobolomyces sp. Y138 at 10 ug/disk in presence of cool-white fluorescent light; format: functional, organism-based
[16] = test system: DNA; test: Photochemical activity against denatured calf thymus DNA at 10 ug after UV irradiation with 10.67 Joules/cm'2 for 120 mins by hyperchromicity test; format: nucleic-acid assay; details: Bos taurus; further: unit not given here
[17] = test system: DNA; test: Photochemical activity against denatured calf thymus DNA at 10 ug after UV irradiation with 16.00 Joules/cm'2 for 180 mins by hyperchromicity test; format: nucleic-acid assay; details: Bos taurus
[18] = test system: Candida albicans; test: Phototoxicity against Candida albicans at 10 ug/disk in presence of long wave UV light; format: functional, organism-based
[19] = test system: Kocuria rosea; test: Phototoxicity against Micrococcus roseus UBC 289 at 10 ug/disk in dark; format: functional, organism-based
[20] = test system: DNA; test: Photochemical activity against denatured calf thymus DNA at 10 ug in dark by hyperchromicity test; format: nucleic-acid assay; details: Bos taurus; further: unit not given here
[21] = test system: Proteus mirabilis; test: Phototoxicity against Proteus mirabilis UBC 5 at 10 ug/disk in presence of cool-white fluorescent light; format: functional, organism-based
[22] = test system: DNA; test: Photochemical activity against denatured calf thymus DNA at in dark after 180 mins by hyperchromicity test; format: nucleic-acid assay; details: Bos taurus
[23] = test system: Candida albicans; test: Phototoxicity against Candida albicans at 10 ug/disk in presence of cool-white fluorescent light; format: functional, organism-based
[24] = test system: Escherichia coli; test: Phototoxicity against Escherichia coli at 10 ug/disk in dark; format: functional, organism-based
[25] = test system: Bacillus subtilis; test: Phototoxicity against Bacillus subtilis at 10 ug/disk in presence of long wave UV light; format: functional, organism-based
[26] = test system: Bacillus subtilis; test: Phototoxicity against Bacillus subtilis at 10 ug/disk in dark; format: functional, organism-based
[27] = test system: Staphylococcus epidermidis; test: Phototoxicity against Staphylococcus albus at 10 ug/disk in dark; format: functional, organism-based
[28] = test system: Pseudomonas fluorescens; test: Phototoxicity against Pseudomonas fluorescens at 10 ug/disk in presence of cool-white fluorescent light; format: functional, organism-based
[29] = test system: Sporobolomyces; test: Phototoxicity against Sporobolomyces sp. Y138 at 10 ug/disk in dark; format: functional, organism-based
[30] = test system: DNA; test: Photochemical activity against denatured calf thymus DNA at 10 ug by hyperchromicity test; format: nucleic-acid assay; details: Bos taurus
[31] = test system: Candida albicans; test: Phototoxicity against Candida albicans at 5 ug/disk after UV irradiation for 30 mins; format: functional; details: light or radiation study, 0.5 h, read-out: IZ
[32] = test system: Nannizzia gypsea; test: Phototoxicity against Microsporum gypseum at 10 ug/disk in presence of cool-white fluorescent light; format: functional, organism-based
[33] = test system: Candida albicans; test: Phototoxicity against Candida albicans at 5 ug/disk after UV irradiation for 15 mins; format: functional; details: light or radiation study, 0.25 h, read-out: IZ
[34] = test system: Enterococcus faecalis; test: Phototoxicity against Streptococcus faecalis at 10 ug/disk in presence of long wave UV light; format: functional, organism-based
[35] = test system: Enterococcus faecalis; test: Phototoxicity against Streptococcus faecalis at 10 ug/disk in dark; format: functional, organism-based
[36] = test system: Paraphyton cookei; test: Phototoxicity against Microsporum cookei at 10 ug/disk in presence of cool-white fluorescent light; format: functional, organism-based
[37] = test system: Saccharomyces cerevisiae; test: Phototoxicity against Saccharomyces cerevisiae at 10 ug/disk in presence of cool-white fluorescent light; format: functional, organism-based
[38] = test system: Staphylococcus epidermidis; test: Phototoxicity against Staphylococcus albus at 10 ug/disk in presence of cool-white fluorescent light; format: functional, organism-based
[39] = test system: Candida albicans; test: Phototoxicity against Candida albicans at 10 ug/disk in dark; format: functional, organism-based
[40] = test system: Fusarium sp.; test: Phototoxicity against Fusarium sp. at 10 ug/disk in presence of long wave UV light; format: functional, organism-based
[41] = test system: Saccharomyces cerevisiae; test: Phototoxicity against Saccharomyces cerevisiae at 10 ug/disk in dark; format: functional, organism-based
[42] = test system: Trichophyton mentagrophytes; test: Phototoxicity against Trichophyton mentagrophytes at 10 ug/disk in presence of long wave UV light; format: functional, organism-based
[43] = test system: Microsporum canis; test: Phototoxicity against Microsporum canis at 10 ug/disk in presence of long wave UV light; format: functional, organism-based
[44] = test system: Rhodotorula mucilaginosa; test: Phototoxicity against Rhodotorula rubra Y96 at 10 ug/disk in dark; format: functional, organism-based
[45] = test system: Sporobolomyces; test: Phototoxicity against Sporobolomyces sp. Y138 at 10 ug/disk in presence of long wave UV light; format: functional, organism-based
[46] = test system: DNA; test: Photochemical activity against denatured calf thymus DNA at in dark after 120 mins by hyperchromicity test; format: nucleic-acid assay; details: Bos taurus; further: unit not given here
[47] = test system: Pseudomonas fluorescens; test: Phototoxicity against Pseudomonas fluorescens at 10 ug/disk in dark; format: functional, organism-based
[48] = test system: Torula; test: Phototoxicity against Torula sp. at 10 ug/disk in presence of long wave UV light; format: functional, organism-based
[49] = test system: Torula; test: Phototoxicity against Torula sp. at 10 ug/disk in dark; format: functional, organism-based
[50] = test system: Enterococcus faecalis; test: Phototoxicity against Streptococcus faecalis at 10 ug/disk in presence of cool-white fluorescent light; format: functional, organism-based
[51] = test system: Saccharomyces cerevisiae; test: Phototoxicity against Saccharomyces cerevisiae at 5 ug/disk after UV irradiation for 30 mins; format: functional; details: light or radiation study, 0.5 h, read-out: IZ
[52] = test system: DNA; test: Photochemical activity against denatured calf thymus DNA at 10 ug in dark after 30 mins by hyperchromicity test; format: nucleic-acid assay; details: Bos taurus
[53] = test system: Pseudomonas fluorescens; test: Phototoxicity against Pseudomonas fluorescens at 10 ug/disk in presence of long wave UV light; format: functional, organism-based
[54] = test system: Microsporum canis; test: Phototoxicity against Microsporum canis at 10 ug/disk in dark; format: functional, organism-based
[55] = test system: DNA; test: Photochemical activity against denatured calf thymus DNA at 10 ug after UV irradiation with 5.33 Joules/cm'2 for 60 mins by hyperchromicity test; format: nucleic-acid assay; details: Bos taurus
[56] = test system: Kocuria rosea; test: Phototoxicity against Micrococcus roseus UBC 289 at 10 ug/disk in presence of cool-white fluorescent light; format: functional, organism-based
[57] = test system: Nannizzia gypsea; test: Phototoxicity against Microsporum gypseum at 10 ug/disk in dark; format: functional, organism-based
[58] = test system: Trichophyton mentagrophytes; test: Phototoxicity against Trichophyton mentagrophytes at 10 ug/disk in dark; format: functional, organism-based
[59] = test system: Trichophyton mentagrophytes; test: Phototoxicity against Trichophyton mentagrophytes at 10 ug/disk in presence of cool-white fluorescent light; format: functional, organism-based
[60] = test system: Nannizzia gypsea; test: Phototoxicity against Microsporum gypseum at 10 ug/disk in presence of long wave UV light; format: functional, organism-based
[61] = test system: Paraphyton cookei; test: Phototoxicity against Microsporum cookei at 10 ug/disk in presence of long wave UV light; format: functional, organism-based
[62] = test system: Rhodotorula mucilaginosa; test: Phototoxicity against Rhodotorula rubra Y96 at 10 ug/disk in presence of long wave UV light; format: functional, organism-based
[63] = test system: Fusarium sp.; test: Phototoxicity against Fusarium sp. at 10 ug/disk in dark; format: functional, organism-based
[64] = test system: Saccharomyces cerevisiae; test: Phototoxicity against Saccharomyces cerevisiae at 10 ug/disk in presence of long wave UV light; format: functional, organism-based

COc1c2occc2cc2ccc(=O)oc12 [METHOXSALEN]
Activity [1]: 0.18
Activity [2]: inactive
Activity [3]: Active
Activity [4]: inactive
Activity [5]: inactive
Activity [6]: Active
Activity [7]: Active
zone of inhibition at 5 µg/disc [8]: 17 mm
zone of inhibition at 5 µg/disc [9]: 20 mm
Activity [10]: Active
Activity [11]: 0.17
Activity [12]: Active
zone of inhibition at 5 µg/disc [13]: 17 mm
Activity [14]: inactive
Activity [15]: Active
Activity [16]: 0.17
Activity [17]: 0.18
Activity [18]: Active
Activity [19]: inactive
Activity [20]: 0.17
Activity [21]: inactive
Activity [22]: 0.17
Activity [23]: Active
Activity [24]: inactive
Activity [25]: Active
Activity [26]: inactive
Activity [27]: inactive
Activity [28]: inactive
Activity [29]: inactive
Activity [30]: 0.18
zone of inhibition at 5 µg/disc [31]: 15 mm
Activity [32]: Active
zone of inhibition at 5 µg/disc [33]: 13 mm
Activity [34]: Active
Activity [35]: inactive
Activity [36]: Active
Activity [37]: Active
Activity [38]: Active
Activity [39]: inactive
Activity [40]: Active
Activity [41]: inactive
Activity [42]: Active
Activity [43]: Active
Activity [44]: inactive
Activity [45]: Active
Activity [46]: 0.17
Activity [47]: inactive
Activity [48]: Active
Activity [49]: inactive
Activity [50]: inactive
zone of inhibition at 5 µg/disc [51]: 18 mm
Activity [52]: 0.17
Activity [53]: inactive
Activity [54]: inactive
Activity [55]: 0.18
Activity [56]: inactive
Activity [57]: inactive
Activity [58]: inactive
Activity [59]: inactive
Activity [60]: Active
Activity [61]: Active
Activity [62]: Active
Activity [63]: inactive
Activity [64]: Active

— ChEMBL document CHEMBL1158147, “Ultraviolet-mediated cytotoxic activity of phenylheptatriyne from Bidens pilosa L” (J Nat Prod, 1979)
